pIC50: −log10 of the molar value.

The target in the assay is T1, Syk (Homo sapiens, UniProt P43405).
T1 construct: purchased Carna Biosciences
Kind of assay: Syk HTRF assay. The class given is biochemical. To be noted: activity levels A-D, read-out: Activity Level (IC50 in the Syk HTRF assay). In outline: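 Read-out is the 665 nm/615 nm time-resolved fluorescence ratio after EDTA stop and Eu-anti-phosphotyrosine plus streptavidin-DyLight 647 detection. Reaction ran 1 h at room temperature with start mix of 87.5 μM ATP and 80 nM substrate peptide in pH 7.6 HEPES/MgCl2 buffer.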
A word on the pIC50: it is the IC50 on a negative log10 scale, so that one unit is a factor of ten. As to `OC[C@@H]1CCCN1Cc1cccc2nc(Nc3ccc(C(F)(F)F)cc3)nn12` [Example 271, (S)-(1-((2-(4-(trifluoromethyl)phenylamino)-[1,2,4]triazolo[1,5-a]pyridin-5-yl)methyl)pyrrolidin-2-yl)methanol], the pIC50 is 5.00 to 6.00.
On to `OCC1CCCN(Cc2cccc3nc(Nc4ccc(C(F)(F)F)cc4)nn23)C1` (stereo not drawn) [Example 273, (1-((2-(4-(trifluoromethyl)phenylamino)-[1,2,4]triazolo[1,5-a]pyridin-5-yl)methyl)piperidin-3-yl)methanol], for which the negative logarithm of the IC50 (pIC50) was 5.00 to 6.00.
Next, `OCC1CCN(Cc2cccc3nc(Nc4ccc(C(F)(F)F)cc4)nn23)CC1` [Example 274, (1-((2-(4-(trifluoromethyl)phenylamino)-[1,2,4]triazolo[1,5-a]pyridin-5-yl)methyl)piperidin-4-yl)methanol]: 5.00 to 6.00; `CNC(=O)c1ccc(Nc2nc3cccc(CC4CCNCC4)n3n2)cc1` [Example 276]: 6.60 to 11.30; `OCCOc1cc(Nc2nc3cccc(N[C@H]4CC[C@@H](O)CC4)n3n2)ccn1` [Example 277, cis-4-(2-(2-(2-hydroxyethoxy)pyridin-4-ylamino)-[1,2,4]triazolo[1,5-a]pyridin-5-ylamino)cyclohexanol]: 6.60 to 11.30.
As for `O[C@H]1CC[C@@H](Nc2cccc3nc(Nc4ccnc(NCCN5CCCC5)c4)nn23)CC1` [Example 278, cis-4-(2-(2-(2-(pyrrolidin-1-yl)ethylamino)pyridin-4-ylamino)-[1,2,4]triazolo[1,5-a]pyridin-5-ylamino)cyclohexanol], the figure is 6.60 to 11.30; as for `Cc1cc(Nc2nc3cccc(N[C@H]4CC[C@@H](O)CC4)n3n2)cc(C)c1F` [Example 279, cis-4-(2-(4-fluoro-3,5-dimethylphenylamino)-[1,2,4]triazolo[1,5-a]pyridin-5-ylamino)cyclohexanol], 6.60 to 11.30.
Next, `COc1ccc(Nc2nc3cccc(-c4ccc5nc(CO)[nH]c5c4)n3n2)cn1` [Example 280, (6-(2-(6-methoxypyridin-3-ylamino)-[1,2,4]triazolo[1,5-a]pyridin-5-yl)-1H-benzo[d]imidazol-2-yl)methanol]: 6.30 to 6.60; `CC1C(=O)NCCN1Cc1cccc2nc(Nc3ccc(C(F)(F)F)cc3)nn12` (stereo not drawn) [Example 281, 3-methyl-4-((2-(4-(trifluoromethyl)phenylamino)-[1,2,4]triazolo[1,5-a]pyridin-5-yl)methyl)piperazin-2-one]: 6.60 to 11.30.
In the case of `CC1CN(Cc2cccc3nc(Nc4ccc(C(F)(F)F)cc4)nn23)CC(=O)N1` (stereo not drawn) [Example 282, 6-methyl-4-((2-(4-(trifluoromethyl)phenylamino)-[1,2,4]triazolo[1,5-a]pyridin-5-yl)methyl)piperazin-2-one], the negative-log IC50 (pIC50) was 5.00 to 6.00.
With `CNC(=O)c1ccc(Nc2nc3cccc(O[C@H]4CC[C@@H](N)CC4)n3n2)cc1` [Example 283, cis-4-(5-(4-aminocyclohexyloxy)-[1,2,4]triazolo[1,5-a]pyridin-2-ylamino)-N-methylbenzamide], the pIC50 is 5.00 to 6.00.
Next, `CNC(=O)c1ccc(Nc2nc3cccc(OC4CCNCC4)n3n2)cc1` [Example 284, N-methyl-4-(5-(piperidin-4-yloxy)-[1,2,4]triazolo[1,5-a]pyridin-2-ylamino)benzamide]: 5.00 to 6.00.
As to `Cc1ccc(Nc2nc3cccc(-c4ccc5nc(CO)[nH]c5c4)n3n2)cn1` [Example 285, (6-(2-(6-methylpyridin-3-ylamino)-[1,2,4]triazolo[1,5-a]pyridin-5-yl)-1H-benzo[d]imidazol-2-yl)methanol], the pIC50 is 6.60 to 11.30.
With `O=C1NCCCN1Cc1cccc2nc(Nc3ccc(C(F)(F)F)cc3)nn12` [Example 286, 1-((2-(4-(trifluoromethyl)phenylamino)-[1,2,4]triazolo[1,5-a]pyridin-5-yl)methyl)tetrahydropyrimidin-2(1H)-one], the pIC50 is 5.00 to 6.00.
Next, `OC1CN(c2cccc3nc(Nc4ccc(C(F)(F)F)cc4)nn23)C1` [Example 287, 1-(2-(4-(trifluoromethyl)phenylamino)-[1,2,4]triazolo[1,5-a]pyridin-5-yl)azetidin-3-ol]: 6.60 to 11.30.
As for `OC[C@H]1CCCN1c1cccc2nc(Nc3ccc(C(F)(F)F)cc3)nn12` [Example 288, (R)-(1-(2-(4-(trifluoromethyl)phenylamino)-[1,2,4]triazolo[1,5-a]pyridin-5-yl)pyrrolidin-2-yl)methanol], the figure is 6.30 to 6.60.
As for `OC[C@@H]1CCCN1c1cccc2nc(Nc3ccc(C(F)(F)F)cc3)nn12` [Example 289, (S)-(1-(2-(4-(trifluoromethyl)phenylamino)-[1,2,4]triazolo[1,5-a]pyridin-5-yl)pyrrolidin-2-yl)methanol], the figure is 5.00 to 6.00.
For `NC(=O)CNCc1cccc2nc(Nc3ccc(C(F)(F)F)cc3)nn12` [Example 290, 2-((2-(4-(trifluoromethyl)phenylamino)-[1,2,4]triazolo[1,5-a]pyridin-5-yl)methylamino)acetamide], the negative logarithm of the IC50 (pIC50) is 6.60 to 11.30.
As for `CNC(=O)c1ccc(Nc2nc3cccc(Cc4cccc(O)c4)n3n2)cc1` [Example 292, 4-(5-(3-hydroxybenzyl)-[1,2,4]triazolo[1,5-a]pyridin-2-ylamino)-N-methylbenzamide], the figure is 6.60 to 11.30.
In the case of `O[C@H]1CC[C@@H](Nc2cccc3nc(Nc4ccnc(OCCN5CCCC5)c4)nn23)CC1` [Example 293, cis-4-(2-(2-(2-(pyrrolidiun-1-yl)ethoxy)pyridin-4-ylamino)-[1,2,4]triazolo[1,5-a]pyridin-5-ylamino)cyclohexanol], the negative-log IC50 (pIC50) was 6.00 to 6.30.
As for `OC1CCN(c2ccc(Nc3nc4cccc(N[C@H]5CC[C@@H](O)CC5)n4n3)cn2)CC1` [Example 294, cis-1-(5-(5-(4-hydroxycyclohexylamino)-[1,2,4]triazolo[1,5-a]pyridin-2-ylamino)pyridin-2-yl)piperidin-4-ol], the figure is 6.60 to 11.30; as for `CNc1ccc(Nc2nc3cccc(N[C@H]4CC[C@@H](O)CC4)n3n2)cn1` [Example 295, cis-4-(2-(6-(methylamino)pyridin-3-ylamino)-[1,2,4]triazolo[1,5-a]pyridin-5-ylamino)cyclohexanol], 6.60 to 11.30; as for `NCCOc1cccc2nc(Nc3ccc(C(F)(F)F)cc3)nn12` [Example 296, 5-(2-aminoethoxy)-N-(4-(trifluoromethyl)phenyl)-[1,2,4]triazolo[1,5-a]pyridin-2-amine], 6.00 to 6.30.
In the case of `O[C@H]1CC[C@@H](Nc2cccc3nc(Nc4cnc5[nH]ccc5c4)nn23)CC1` [Example 297, cis-4-(2-(1H-pyrrolo[2,3-b]pyridin-5-ylamino)-[1,2,4]triazolo[1,5-a]pyridin-5-ylamino)cyclohexanol], the negative logarithm of the IC50 (pIC50) was 6.60 to 11.30.
`CN(C)c1ccc(Nc2nc3cccc(-c4ccc5nc(CO)[nH]c5c4)n3n2)cn1` [Example 298, (6-(2-(6-(dimethylamino)pyridin-3-ylamino)-[1,2,4]triazolo[1,5-a]pyridin-5-yl)-1H-benzo[d]imidazol-2-yl)methanol]: the pIC50 was 6.60 to 11.30.
`O[C@H]1CCCN(Cc2cccc3nc(Nc4ccc(C(F)(F)F)cc4)nn23)C1` [Example 300, (S)-1-((2-(4-(trifluoromethyl)phenylamino)-[1,2,4]triazolo[1,5-a]pyridin-5-yl)methyl)piperidin-3-ol]: the pIC50 was 5.00 to 6.00.
As for `O=C1CN(Cc2cccc3nc(Nc4ccc(C(F)(F)F)cc4)nn23)CN1` [Example 301, 1-((2-(4-(trifluoromethyl)phenylamino)-[1,2,4]triazolo[1,5-a]pyridin-5-yl)methyl)imidazolidin-4-one], the figure is 5.00 to 6.00; as for `FC(F)(F)c1ccc(Nc2nc3cccc(OC[C@H]4CCCN4)n3n2)cc1` [Example 302, (R)-5-(pyrrolidin-2-ylmethoxy)-N-(4-(trifluoromethyl)phenyl)-[1,2,4]triazolo[1,5-a]pyridin-2-amine], 5.00 to 6.00.
As for `FC(F)(F)c1ccc(Nc2nc3cccc(OC[C@@H]4CCCN4)n3n2)cc1` [Example 303, (S)-5-(pyrrolidin-2-ylmethoxy)-N-(4-(trifluoromethyl)phenyl)-[1,2,4]triazolo[1,5-a]pyridin-2-amine], the figure is 5.00 to 6.00; as for `OCCCOc1cccc2nc(Nc3ccc(C(F)(F)F)cc3)nn12` [Example 304, 3-(2-(4-(trifluoromethyl)phenylamino)-[1,2,4]triazolo[1,5-a]pyridin-5-yloxy)propan-1-ol], 5.00 to 6.00; as for `Oc1cccc(Nc2nc3cccc(N[C@H]4CC[C@@H](O)CC4)n3n2)n1` [Example 305, cis-6-(5-(4-hydroxycyclohexylamino)-[1,2,4]triazolo[1,5-a]pyridin-2-ylamino)pyridin-2-ol], 5.00 to 6.00.
`CNC(=O)c1ccc(Nc2nc3cccc(CC(O)C4CCNCC4)n3n2)cc1` (stereo not drawn) [Example 306, 4-(5-(2-hydroxy-2-(piperidin-4-yl)ethyl)-[1,2,4]triazolo[1,5-a]pyridin-2-ylamino)-N-methylbenzamide]: the pIC50 is 5.00 to 6.00.
Next, `FC(F)(F)c1ccc(Nc2nc3cccc(N4CCCC4)n3n2)cc1` [Example 307, 5-(pyrrolidin-1-yl)-N-(4-(trifluoromethyl)phenyl)-[1,2,4]triazolo[1,5-a]pyridin-2-amine]: 5.00 to 6.00; `FC(F)(F)c1ccc(Nc2nc3cccc(CN4CCOCC4)n3n2)cc1` [Example 308, 5-(morpholinomethyl)-N-(4-(trifluoromethyl)phenyl)-[1,2,4]triazolo[1,5-a]pyridin-2-amine]: 5.00 to 6.00.
Next, `O[C@@H]1CCCN(c2cccc3nc(Nc4ccc(C(F)(F)F)cc4)nn23)C1` [Example 309, (R)-1-(2-(4-(trifluoromethyl)phenylamino)-[1,2,4]triazolo[1.5-a]pyridin-5-yl)piperidin-3-ol]: 6.00 to 6.30; `O[C@H]1CCCN(c2cccc3nc(Nc4ccc(C(F)(F)F)cc4)nn23)C1` [Example 310, (S)-1-(2-(4-(trifluoromethyl)phenylamino)-[1,2,4]triazolo[1,5-a]pyridin-5-yl)piperidin-3-ol]: 6.30 to 6.60.

Values taken from patent US8299056B2 (Signal Pharmaceuticals, LLC, priority 2008, dated 2012).
